Several values for one entry are separate records, joined by “and”; a condition that tells them apart may be missing. Identical values can stand only once.
Legend:
HeLa = conditions: bulk resorufin, single well, 28.5 h, 10 µM, Bulk resorufin fluorescence
in vitro [1] = conditions: human, hela cells, % viability
[2] = system: T1, CTL2-GFP (C. trachomatis L2/434/Bu, GFP-expressing); assay: microbe, parasite or virus in culture; design: Intracellular C. trachomatis growth in HeLa cells, bulk GFP fluorescence relative to DMSO; conditions: Chlamydia trachomatis, HeLa, 28.5 h; bulk GFP, mean of 2; read-out: % of control remaining
T1 construct: L2/434/Bu, GFP-expressing
Protocol: MICs were calculated as described above.

in vitro [3] = assay: in vitro; design: Viability of infected HeLa host cells, resazurin conversion, bulk resorufin fluorescence relative to DMSO; conditions: human, hela cells; bulk resorufin, mean of 2
[4] = system: T2, C. trachomatis L2/434/Bu expressing GFP (CTL2-GFP); assay: microbe, parasite or virus in culture; design: C. trachomatis total inclusion area by high-content imaging, normalised to DMSO; conditions: Chlamydia trachomatis, HeLa, 28.5 h; total inclusion area; read-out: % of control remaining
T2 construct: L2/434/Bu GFP intracellular growth in HeLa cells
Summary of the method: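 A 36,785-compound library was screened using bulk GFP and resorufin fluorescence, followed by Hoechst staining and high-content imaging of inclusions (GFP) and host nuclei. Inclusion area and number served as growth proxies and nuclei counts as a viability proxy. MICs were calculated from these readouts.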

Row | Structure (SMILES) | % viability (HeLa) | viability at 28.5 h, 10 µM (in vitro [1]) [%] | activity at 1 µM [2] [%] | activity at 5 µM [2] [%] | activity at 10 µM [2] [%] | viability at 28.5 h, 1 µM (in vitro [3]) [%] | viability at 28.5 h, 5 µM (in vitro [3]) [%] | viability at 28.5 h, 10 µM (in vitro [3]) [%] | activity at 1 µM [4] [%] | activity at 5 µM [4] [%] | activity at 10 µM [4] [%]
1 | CC(Oc1ccccc1)C(=O)Nc1ccccc1C(=O)O (stereo not drawn) [CBK262854] | 109% and 87% |  |  |  |  |  |  |  |  |  | 
2 | CCOC(=O)c1cnc2c(Cl)cccc2c1NCCN1CCOCC1 [CBK263919] | 88.1% and 109% |  |  |  |  |  |  |  |  |  | 
3 | O=C1C(NCCO)=C(Nc2cccc(Cl)c2)C(=O)c2ccccc21 [CBK264323] |  | 91.7 | 93 | 48.6 | 35.5 | 102 | 98.6 | 88.4 | 90.7 | 34.6 | 14.8
4 | Cc1ccc(S(=O)(=O)Nc2cc(SCC(=O)O)c(O)c3ccccc23)cc1 [CBK265708] |  | 87.1 | 92.1 | 51.3 | 33 | 103 | 99.6 | 97.8 | 75.1 | 34.7 | 13.4
5 | O=C(CSc1nc(O)c(Cc2ccccc2)c(=O)[nH]1)Nc1ccc([N+](=O)[O-])cc1 [CBK265887] | 88% and 113% |  |  |  |  |  |  |  |  |  | 
6 | CCN(CC)CCNc1nc(-c2cccc(Cl)c2)nc2ccccc12 [CBK267265C] |  | 90.7 | 108 | 98.1 | 55.5 | 104 | 104 | 108 | 85 | 45.3 | 26.4
7 | Cc1cc(C(=O)Nc2cccc(S(=O)(=O)N3CCOCC3)c2)sc1-c1ccccc1 [CBK268185] |  | 102 | 102 | 88.9 | 77.7 | 106 | 96.9 | 98.5 | 107 | 82.1 | 51.4
8 | N=c1c2c(-c3ccccc3)c(-c3ccccc3)n(Cc3ccccc3)c2ncn1CCN1CCOCC1 [CBK268537] |  | 92 | 123 | 83 | 70.7 | 94.8 | 97.8 | 93.4 | 119 | 66.8 | 34.6
9 | Cn1cc(C(=O)N2CCc3[nH]c4ccccc4c3C2)cn1 [CBK281875] | 104% and 83.7% |  |  |  |  |  |  |  |  |  | 
10 | CC[C@@H](Cn1nc(-c2cccs2)ccc1=O)NC(=O)C1CC1 [CBK282309] | 80.2% and 102% |  |  |  |  |  |  |  |  |  | 
11 | C=CCNC(=O)[C@H]1C=CCN1C(=O)Nc1ccc(F)cc1 [CBK282318] | 82.7% and 110% |  |  |  |  |  |  |  |  |  | 
12 | CC(C)[C@@H](N)Cn1nc(-c2ccc(F)c(F)c2)ccc1=O [CBK282429] | 83% and 112% |  |  |  |  |  |  |  |  |  | 
13 | COc1ccc(CN2C(=O)[C@H]3CCCN3C(=O)c3ccccc32)cc1 [CBK282851] | 87.8% and 109% |  |  |  |  |  |  |  |  |  | 
14 | C[C@H]1CN2C[C@H](O)CC2CN1Cc1ccc(C(F)(F)F)cc1 (stereo partly drawn) [CBK285147] | 113% and 89.6% |  |  |  |  |  |  |  |  |  | 
15 | C[C@H]1CN2C[C@H](O)CC2CN1Cc1ccc(-c2ccccc2Cl)o1 (stereo partly drawn) [CBK285418] | 109% and 85.9% |  |  |  |  |  |  |  |  |  | 
16 | CCC(c1ccc(F)cc1)N(C)C(=O)Cn1cc(C(=O)NC2CCCCC2)ccc1=O (stereo not drawn) [CBK286106] |  | 89.8 | 128 | 21.7 | 7.58 | 89.5 | 95.3 | 87.5 | 114 | 27.8 | 2.51
17 | CN(C)c1ncc(-c2cccc(Cl)c2)c(C2CCCN2C(=O)CC2CCCC2)n1 (stereo not drawn) [CBK286253] |  | 120 | 135 | 91 | 43.9 | 97.3 | 106 | 110 | 105 | 82.7 | 44.1
18 | O=C(O)CC1C(=O)NC(=O)N1CCc1ccccc1 (stereo not drawn) [CBK287254] | 111% and 85.3% |  |  |  |  |  |  |  |  |  | 
19 | Cc1ccc2sc(NC(=O)c3ccc(N4C(=O)CCC4=O)cc3)nc2c1C [CBK287587] | 84.7% and 106% |  |  |  |  |  |  |  |  |  | 
20 | COc1ccc(Nc2nccc(-c3cccnc3)n2)cc1 [CBK288073] | 70.2% and 104% |  |  |  |  |  |  |  |  |  | 
21 | O=c1c2cnc3ccnn3c2ccn1C1CCCC1 [CBK288074] |  | 107 | 109 | 72.3 | 2.35 | 103 | 106 | 109 | 65.5 | 60.4 | 4.02
22 | CC(=O)c1c(C)nc(-c2ccc(Cl)c(Cl)c2)n1O [CBK288525] | 116% and 89.2% |  |  |  |  |  |  |  |  |  | 
23 | COCC(=O)N[C@H]1C[C@H]2C(=O)Nc3ccc(/C=C/c4ccccc4)cc3C(=O)N2C1 [CBK289366] |  | 90.2 | 87.5 | 12 | 2.8 | 93.1 | 96.4 | 98.1 | 105 | 11.7 | 1.71
24 | O=C1CNC(=O)C2(C/C=C/C[C@H]3COCC[C@H]3N1)CCNCC2 [CBK292151] | 82.1% and 104% |  |  |  |  |  |  |  |  |  | 
25 | Cc1csc(SC(C)C(=O)N2CCc3ccccc32)n1 (stereo not drawn) [CBK305909] |  | 98.8 | 143 | 149 | 132 | 94.1 | 91.9 | 89.5 | 112 | 49.8 | 42.5
26 | COc1cc2c(cc1CNC(=O)c1cn(CCN)nn1)CCC2 [CBK306886] |  | 84.7 | 167 | 109 | 35.5 | 97.3 | 96.7 | 92.4 | 176 | 112 | 45.1
27 | Cn1cc(C(NC(=O)c2nc(N)nc3c2CCCC3)[C@H]2C[C@@H](O)C2)cn1 (stereo partly drawn) [CBK307535] | 92.2% and 114% |  |  |  |  |  |  |  |  |  | 
